Experiments:
Experiment in all cases: Eurofins kinase selectivity profile against 380 other human recombinant kinases (Table S2)
Format in all cases: biochemical
[1] = molecular target: T1, 380 human recombinant protein kinases (Homo sapiens, UniProt Q8N568); conditions: DCAMKL2(h), read-out: Inhibition rate
T1 construct: purchased Eurofins (Celle Lévescault)
Procedure, shortened: (§1)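 Values come from a contract kinase-profiling service that tested the compound at multiple concentrations across 380 recombinant human kinases, as an off-target check against the MK2 activity.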

[2] = molecular target: T2, 380 human recombinant protein kinases (Homo sapiens, UniProt P35626); conditions: GRK3(h), read-out: Inhibition rate
T2 construct: purchased Eurofins (Celle Lévescault)
T2 sequence (P35626 1-688): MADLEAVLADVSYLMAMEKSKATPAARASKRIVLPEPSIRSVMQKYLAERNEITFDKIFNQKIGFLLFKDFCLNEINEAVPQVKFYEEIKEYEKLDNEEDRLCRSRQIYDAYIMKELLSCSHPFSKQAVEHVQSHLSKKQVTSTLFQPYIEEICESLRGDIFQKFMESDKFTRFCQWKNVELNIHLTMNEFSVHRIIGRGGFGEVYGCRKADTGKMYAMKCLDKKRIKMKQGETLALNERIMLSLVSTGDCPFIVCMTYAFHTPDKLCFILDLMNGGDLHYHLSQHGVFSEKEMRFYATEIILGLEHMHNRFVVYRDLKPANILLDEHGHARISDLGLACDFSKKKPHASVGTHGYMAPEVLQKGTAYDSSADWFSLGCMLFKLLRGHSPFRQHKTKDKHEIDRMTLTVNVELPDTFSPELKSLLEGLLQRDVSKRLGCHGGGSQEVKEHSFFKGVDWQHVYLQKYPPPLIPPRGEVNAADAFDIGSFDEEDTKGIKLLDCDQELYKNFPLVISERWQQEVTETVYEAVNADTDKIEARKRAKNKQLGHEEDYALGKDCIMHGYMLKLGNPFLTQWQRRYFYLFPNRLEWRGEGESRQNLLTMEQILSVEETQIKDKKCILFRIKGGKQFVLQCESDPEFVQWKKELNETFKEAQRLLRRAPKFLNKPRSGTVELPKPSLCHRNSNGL
Procedure, shortened: as §1

[3] = molecular target: T3, 380 human recombinant protein kinases (Homo sapiens, UniProt Q9NZJ5); conditions: PEK(h), read-out: Inhibition rate
T3 construct: purchased Eurofins (Celle Lévescault)
T3 sequence (Q9NZJ5 30-1116): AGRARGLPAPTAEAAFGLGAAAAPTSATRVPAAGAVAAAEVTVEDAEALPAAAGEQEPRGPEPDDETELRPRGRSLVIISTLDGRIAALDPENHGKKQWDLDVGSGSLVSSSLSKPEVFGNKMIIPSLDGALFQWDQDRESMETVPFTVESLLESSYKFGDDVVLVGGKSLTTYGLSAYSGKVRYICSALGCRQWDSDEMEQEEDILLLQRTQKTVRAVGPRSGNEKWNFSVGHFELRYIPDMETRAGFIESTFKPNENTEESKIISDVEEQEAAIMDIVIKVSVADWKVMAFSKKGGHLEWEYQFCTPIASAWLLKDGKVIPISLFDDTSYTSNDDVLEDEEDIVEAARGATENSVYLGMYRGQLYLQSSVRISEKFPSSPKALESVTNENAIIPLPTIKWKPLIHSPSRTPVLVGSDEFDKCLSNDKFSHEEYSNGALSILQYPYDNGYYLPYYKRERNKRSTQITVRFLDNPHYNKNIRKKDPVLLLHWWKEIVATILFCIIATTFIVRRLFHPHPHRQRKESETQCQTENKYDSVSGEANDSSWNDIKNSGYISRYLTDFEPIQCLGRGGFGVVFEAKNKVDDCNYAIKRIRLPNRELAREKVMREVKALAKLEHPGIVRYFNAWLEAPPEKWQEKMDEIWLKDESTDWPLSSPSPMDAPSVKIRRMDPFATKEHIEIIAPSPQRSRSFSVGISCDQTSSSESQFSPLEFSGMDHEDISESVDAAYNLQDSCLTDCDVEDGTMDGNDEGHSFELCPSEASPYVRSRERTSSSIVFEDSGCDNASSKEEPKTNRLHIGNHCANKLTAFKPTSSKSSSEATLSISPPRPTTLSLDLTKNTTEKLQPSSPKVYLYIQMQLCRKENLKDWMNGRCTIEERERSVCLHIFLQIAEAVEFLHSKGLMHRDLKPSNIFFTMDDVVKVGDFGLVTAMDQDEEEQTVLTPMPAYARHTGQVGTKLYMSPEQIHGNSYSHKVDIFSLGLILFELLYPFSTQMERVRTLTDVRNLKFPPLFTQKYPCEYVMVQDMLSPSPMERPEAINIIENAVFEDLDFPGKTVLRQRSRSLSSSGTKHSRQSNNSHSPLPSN
Procedure, shortened: as §1

T1 sequence (Q8N568 whole entry): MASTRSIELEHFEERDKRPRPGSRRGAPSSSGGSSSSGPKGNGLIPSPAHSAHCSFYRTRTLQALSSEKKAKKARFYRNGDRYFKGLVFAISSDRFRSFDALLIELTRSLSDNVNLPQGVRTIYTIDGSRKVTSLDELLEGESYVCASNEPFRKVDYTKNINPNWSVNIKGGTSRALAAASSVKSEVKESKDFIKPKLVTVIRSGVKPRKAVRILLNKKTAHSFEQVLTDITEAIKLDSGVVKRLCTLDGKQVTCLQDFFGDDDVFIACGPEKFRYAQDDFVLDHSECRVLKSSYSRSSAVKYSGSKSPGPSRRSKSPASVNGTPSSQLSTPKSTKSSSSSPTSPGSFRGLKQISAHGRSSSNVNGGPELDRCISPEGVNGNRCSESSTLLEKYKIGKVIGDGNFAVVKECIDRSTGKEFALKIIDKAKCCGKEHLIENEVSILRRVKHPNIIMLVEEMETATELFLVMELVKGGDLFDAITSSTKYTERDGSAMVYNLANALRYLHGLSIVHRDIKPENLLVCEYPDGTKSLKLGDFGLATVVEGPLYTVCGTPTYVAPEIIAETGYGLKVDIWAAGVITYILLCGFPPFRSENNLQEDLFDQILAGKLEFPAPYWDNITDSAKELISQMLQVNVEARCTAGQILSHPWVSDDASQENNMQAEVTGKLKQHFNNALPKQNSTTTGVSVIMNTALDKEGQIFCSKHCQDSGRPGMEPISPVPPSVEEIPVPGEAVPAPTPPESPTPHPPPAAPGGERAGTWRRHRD

`C=CC(=O)Nc1cc(-c2cc(-c3cc4c([nH]3)CCNC4=O)ccn2)ccc1OC(F)(F)F` [compound 11] was tested, and the inhibition at 0.01 µM ([1]; 10 nM) was 4%, the inhibition at 0.1 µM ([1]; 100 nM) was 4% and the inhibition at 1 µM ([1]; 1000 nM) was 4%. For the same compound, the inhibition at 0.01 µM ([2]; 10 nM) was -3%, the inhibition at 0.1 µM ([2]; 100 nM) was -8% and the inhibition at 1 µM ([2]; 1000 nM) was -2%. It also gave an inhibition at 0.01 µM ([3]; 10 nM) of -1%, an inhibition at 0.1 µM ([3]; 100 nM) of -9% and an inhibition at 1 µM ([3]; 1000 nM) of 2%.
